*1 amine or outer side, *2 acyl side, *3 side chain or, on linkers, in order; H or OH if unused. Where a SMILES comes first, the peptide text is derived from it. Bridges are numbered along the chain shown (N, C = ends). Roman numbers before positions name the chains, in order. [ ]: non-standard residue; d: D form. Hexamethylenediamine = C(CCCN[*:2])CCN[*:1]; Dip = N[C@H](C(=O)O)C(c1ccccc1)c1ccccc1; Chg = N[C@H](C(=O)O)C1CCCCC1; NMeA = CN[C@@H](C)C(=O)O
What was measured:
[1] = system: CD19+ Luc+ NALM-6 leukemia cell line; assay: High-throughput screen of small molecule library for CART-enhancing compounds (luminescence, 48 hours); format: cell-based, human; details: for effect on CART killing activity in the screen: NALM-6 + CART19, 0.3:1 E:T ratio
Procedure: FIG. 6 illustrates a high-throughput platform to identify CART-enhancing bioactive compounds. The CD19+ Luc+ NALM-6 leukemia cell line was plated at 0.3:1 E:T ratio+/− CART19 using an automated dispenser, Small molecules from a custom-made library (SelleckChem) were then added via an automated workstation and luminescence was detected after 48 hours with a high-throughput plate reader.
FIG. 7 illustrates that birinapant enhances CART cell cytotoxicity. Screening results: total cytotoxicity (%) of small molecules alone (Y axis) or in combination with CART (X axis). Birinapant is represented by the dot at the “40” mark on the X axis (●).
An unbiased, reliable, automated, high-throughput system was generated to test thousands of different combinations of CART and small molecules. […] Subsequently, 2,615 different small molecules were added (1 per well). More than half of these drugs are FDA-approved. After 48 hours, tumor luminescence was recorded and percentage tumor killing was calculated. This platform has already generated several significant hits. See FIG. 7, birinapant in grey, represented by the dot at the “40” mark on the X axis (●). Thus, small molecules enhancing CART killing can be identified.
Birinapant was the only SMAC mimetic in the library.

[2] = system: HER2+ human ovarian cancer cell line (SKOV3); assay: SMAC mimetics with anti-HER2 CAR T (4D5) against SKOV3, luminescence and XCelligence; format: cell-based; details: SKOV3 + anti-HER2 CAR T (4D5), 50 nM drug vs DMSO
Procedure: FIGS. 12A-12B illustrate the synergistic killing of solid tumors using CAR cells in combination with SMAC mimetics. […] E:T ratio=0.01:1, [Drug]=50 nM. 24 h co-culture, A human ovarian cell line expressing endogenous HER2 and luciferase reporter (SKOV3 CBG-T2A-GFP) was seeded at density of 10^4 cells/100 μl of media in each well of 96 well plate and grown overnight. Next day, CAR T cells (4D5; Liu et al. Cancer Research 2015; (75)(17):3596-607, incorporated by reference herein in its entirety) were introduced at E:T ratio=0.01:1 50 nM of SMAC mimetics or corresponding amounts of DMSO. After 48 hours, luciferin was added to the cells and luminescence was detected using a luminometer (Biotek Synergy H4). Tumor killing was calculated using the formula: (sample-tumor treated with DMSO)/(lysis control-tumor treated with DMSO). A human ovarian adenocarcinoma cell line (SKOV3) expressing endogenous HER2 was cultured in the presence or absence of human T cells expressing a chimeric antigen receptor against HER2 at a 1:1 CART:Tumor ratio. Cells were treated with 50 nM of birinapant ([…]), BV6, AZD5582 or corresponding amounts of DMSO. Tumor killing was monitored in real-time using the impedance-based […]@ system (ACEA Biosciences, Inc).

[3] = system: human pre-B ALL cell line (NALM6 CBG-T2A-GFP); assay: CART19 (CTL019) killing of NALM6 with birinapant, luciferase readout after 72 hours; format: cell-based; details: NALM6 + CTL019 at different ratios, different doses of birinapant vs DMSO
Procedure: FIG. 1A is a graph showing the percentage of tumor killing by CART as a result of increasing concentrations of birinapant or corresponding amounts of DMSO as a control. FIG. 1B is a graph showing the percentage of tumor killing by CART as a function of CART:Tumor ratio. For FIGS. 1A-1B, a human pre-B ALL cell line expressing endogenous CD19 and a luciferase reporter (NALM6 CBG-T2A-GFP) was cultured in the presence or absence of human T cells expressing a chimeric antigen receptor against CD19 (CTL019, KYMRIAH®) at different ratios. Cells were treated with different doses of birinapant (TL32711, Medivir) or corresponding amounts of DMSO. After 72 hours luciferin was added to the cells and luminescence was detected using a luminometer (Biotek Synergy H4). Tumor killing was calculated using the formula: (sample−tumor treated with DMSO)/(lysis control−tumor treated with DMSO). […]
A human pre-B ALL cell line expressing endogenous CD19 and a luciferase reporter (NALM6 CBG-T2A-GFP) was cultured in the presence or absence of human T cells expressing a chimeric antigen receptor against CD19 (CTL019, KYMRIAH®) at different ratios. […] After 72 hours luciferin was added to the cells and luminescence was detected using a luminometer (Biotek Synergy H4). Tumor killing was calculated using the formula: (sample−tumor treated with DMSO)/(lysis control−tumor treated with DMSO). […]

[4] = system: human ovarian adenocarcinoma cell line (SKOV3); assay: Anti-HER2 CART (CAR 4D5) killing of SKOV3 with birinapant, impedance-based XCelligence; format: cell-based; details: SKOV3 + CAR 4D5, 1:1 CART:Tumor ratio, different doses of birinapant vs DMSO, real-time impedance
Procedure: FIG. 2A is a graph showing the growth and clearance of tumor cells over time. At approximately 21 h (vertical line) tumor cells were treated with only Birinapant (solid lines) or Birinapant and CART cells (dotted lines, 1:1 CART:Tumor ratio). FIG. 2B is analogous to FIG. 2A except for the addition of DMSO instead of Birinapant. FIGS. 2C and 2D summarize the results of FIGS. 2A and 2B, respectively (10 nM Birinapant or DMSO). For FIGS. 2A-2D, a human ovarian adenocarcinoma cell line (SKOV3) expressing endogenous HER2 was cultured in the presence or absence of human T cells expressing a chimeric antigen receptor against HER2 (CAR 4D5) at a 1:1 CART:Tumor ratio, Cells were treated with different doses of birinapant (TL32711, Medivir) or corresponding amounts of DMSO. Tumor killing was monitored in real-time using the impedance-based XCelligence® system (ACEA Biosciences, Inc),
A human ovarian adenocarcinoma cell line (SKOV3) expressing endogenous HER2 was cultured in the presence or absence of human T cells expressing a chimeric antigen receptor against HER2 (CAR 4D5; Liu et al. Cancer Research 2015; (7517):3596-607, incorporated by reference herein in its entirety) at a 1:1 CART:Tumor ratio. […] Tumor killing was monitored in real-time using the impedance-based XCelligence® system (ACEA Biosciences, Inc).

[5] = system: human pre-B ALL cell line (NALM6 CBG-T2A-GFP); assay: Birinapant-enhanced CART19 killing of NALM6 with TNF antibodies, 72 hours; format: cell-based; details: NALM6 + CTL019, 1 μM birinapant with isotype control or TNF antibodies
Procedure: (§1) A human pre-B ALL cell line expressing endogenous CD19 and a luciferase reporter (NALM6 CBG-T2A-GFP) was cultured in the presence or absence of human T cells expressing a chimeric antigen receptor against CD19 (CTL019, KYMRIAH®). Cells were either treated with 1 μM of birinapant (TL32711, Medivir), corresponding amounts of DMSO or 1 μM birinapant (TL32711, Medivir) in combination with different amounts of isotype control or TNF antibodies. After 72 hours, luciferin was added to the cells and luminescence was detected using a luminometer (Biotek Synergy H4), Tumor killing was calculated using the formula: (sample−tumor treated with DMSO)/(lysis control−tumor treated with DMSO).
as §1, with “μM” for “μM of”, “and” for “in combination with”, “H4).” for “H4),”

SMILES	effect on CART killing activity in the screen [1]	CART killing of solid tumor cell lines [2]	also measured
CCCCCCCCCCCC1=C(O)C(=O)C=C(O)C1=O [Embelin, 2,5-Dihydroxy-3-undecyl-2,5-cyclohexadiene-1,4-dione]	Neither Embelin nor GDC-0152 revealed a significant effect on CART killing activity		
CN[C@@H](C)C(=O)N[C@H](C(=O)N1CCC[C@H]1C(=O)N[C@H](C(=O)NCCCCCCNC(=O)[C@@H](NC(=O)[C@@H]1CCCN1C(=O)[C@@H](NC(=O)[C@H](C)NC)C1CCCCC1)C(c1ccccc1)c1ccccc1)C(c1ccccc1)c1ccccc1)C1CCCCC1 [BV6, ((S,S,2S,2′S)-N,N′-((2S,2′S)-(hexane-1,6-diylbis(azanediyl))bis(3-oxo-1,1-diphenylpropane-3,2-diyl))bis(1-((S)-2-cyclohexyl-2-((S)-2-(methylamino)propanamido)acetyl)pyrrolidine-2-carboxamide))] (I: H-[NMeA][Chg]P[Dip] / II: H-[NMeA][Chg]P[Dip]; linker I:C-II:C via Hexamethylenediamine)		enhance CART killing of solid tumor cell lines	
CC[C@H](NC(=O)[C@H](C)NC)C(=O)N1C[C@@H](O)C[C@H]1Cc1c(-c2[nH]c3cc(F)ccc3c2C[C@@H]2C[C@H](O)CN2C(=O)[C@H](CC)NC(=O)[C@H](C)NC)[nH]c2cc(F)ccc12 [birinapant, (2S)-N-[(2S)-1-[(2R,4S)-2-[[6-fluoro-2-[6-fluoro-3-[[(2R,4S)-4-hydroxy-1-[(2S)-2-[[(2S)-2-(methylamino)propanoyl]amino]butanoyl]pyrrolidin-2-yl]methyl]-1H-indol-2-yl]-1H-indol-3-yl]methyl]-4-hydroxypyrrolidin-1-yl]-1-oxobutan-2-yl]-2-(methylamino)propanamide]		enhance CART killing of solid tumor cell lines	CART killing of leukemic cell lines [3]: enhances CART killing of leukemic cell lines; total cytotoxicity (%) of small molecules in combination with CART (X axis) ([1]; FIG. 7, NALM-6 + CART19, 0.3:1 E:T ratio): 40%; CART killing of solid tumor cell lines [4]: enhances CART killing of solid tumor cell lines; TNF dependence of enhanced CART killing of tumor [5]: birinapant-enhanced CART killing of tumor is TNF-dependent
CN[C@@H](C)C(=O)N[C@H](C(=O)N1CCC[C@H]1C(=O)Nc1snnc1-c1ccccc1)C1CCCCC1 [GDC-0152, (S)-1-((S)-2-cyclohexyl-2-((S)-2-(methylamino)propanamido)acetyl)-N-(4-phenyl-1,2,3-thiadiazol-5-yl)pyrrolidine-2-carboxamide]	Neither Embelin nor GDC-0152 revealed a significant effect on CART killing activity		
CN[C@@H](C)C(=O)N[C@H](C(=O)N1CCC[C@H]1C(=O)N[C@H]1c2ccccc2C[C@H]1OCC#CC#CCO[C@@H]1Cc2ccccc2[C@@H]1NC(=O)[C@@H]1CCCN1C(=O)[C@@H](NC(=O)[C@H](C)NC)C1CCCCC1)C1CCCCC1 [AZD5582, (2S,2′S)-N,N′-((S,1′S,2R,2′R)-(hexa-2,4-diyne-1,6-diylbis(oxy))bis(2,3-dihydro-1H-indene-2,1-diyl))bis(1-((S)-2-cyclohexyl-2-((S)-2-(methylamino)propanamido)acetyl)pyrrolidine-2-carboxamide)]		enhance CART killing of solid tumor cell lines	

Source: patent US20200376035A1, “METHODS AND COMPOSITIONS COMPRISING CART AND A SMAC MIMETIC” (THE TRUSTEES OF THE UNIVERSITY OF PENNSYLVANIA, priority 2018, published 2020)
